2 molecules from paper PMC6886544 can be followed below.

The target of one data set is FGR (Homo sapiens, UniProt P09769). As to the kind of experiment: SelectScreen kinase profiling, FGR. The data set is classed as biochemical. The following applies: mean ± SD of one measurement in duplicates. On the procedure:
(§1) Kinase profiling of compound 17a at a concentration of 1 µM generated with the SelectScreen® Profiling Service from Life Technologies.
(§2) Figure S2. Kinase profiling of compound 17a, Illustration as waterfall plot. 9 Kinases harboring a Cysteine isostructural to Cys797 in EGFR are highlighted
(§3) Kinase % inhibition Kinase % inhibition […]
(§4) aValues are the mean ± SD of one measurement in duplicates; bKinases harboring a Cysteine isostructural to Cys797 […]
(§5) (1 picture or pasted object on this page, not shown here)

The next data set concerns the target ErbB4 (Homo sapiens, UniProt Q15303). Nature of the data set: SelectScreen kinase profiling, ErbB4. The data set is classed as biochemical. The following applies: mean ± SD of one measurement in duplicates. The method, then:
as §1, §2, §3, §4, §5

In another data set the target is EPHB2 (Homo sapiens, UniProt P29323). As to the kind of experiment: SelectScreen kinase profiling, EPHB2. The data set is classed as biochemical. The following applies: mean ± SD of one measurement in duplicates. The method, then:
as §1, §2, §3, §4, §5

The next data set addresses BMX (Homo sapiens, UniProt P51813). As to the kind of experiment: SelectScreen kinase profiling, BMX. The data set is classed as biochemical. The following applies: mean ± SD of one measurement in duplicates. The method, then: as §1, §2, §3, §4, §5
Data set [1] relates to EGFR and downstream cascade phosphorylation in A431 cells. As to the kind of experiment: Western blot analysis in A431 cells. The settings on record: 1 h inhibitor then EGF stimulation. The data set is classed as cell-based. On the procedure: and incubated at 37 °C and 5% CO2. On day 2 cells were starved over night with media containing 0.5% FBS to be incubated on day 3 for 1 h with EGFR inhibitors following an additional 30 min of EGF stimulation at 50 ng/mL. The media was discarded and cells were washed once with DPBS
1x. Using 100 μL per well of lysis buffer, cells were then scraped off and lysed while rotating (Stuart Scientific, Staffordshire, UK) for 1 h at 4 °C. […] Supernatant was transferred into new tube and protein concentrations were determined with the Bio-Rad Protein Assay (Bio-Rad Laboratories, Hercules, CA). […]
captured and quantified using a FUJI LAS3000 system with Science Lab 2001 ImageGauge 4.0 software (Fujifilm Medial Systems, Stamford CT, USA). […]
glycerol, 1 mM TCEP, pH 8) on ice for 1 h. We analyzed the aliquots by ESI-MS using an Thermo Fisher Scientific Dionex UltiMate 3000 HPLC system connected to a Thermo Fisher Scientific Velos Pro (2d ion trap). Therefore, 5 μL of sample was injected and separated using a Vydac 214TP C4 5 μm column (150 mm x 2.1 mm) starting at 20% of solvent B for 5 minutes followed by a gradient up to 90% of solvent B over 14 min with a flow rate of 210 μL/min with 0.1% TFA in water as solvent A and 0.1% TFA in MeCN as solvent B. A mass range of 700 to 2000 m/z was scanned and raw data was deconvoluted and analyzed with MagTran software (Z.Q. Zhang, A.G. […]
A general note: Immunoblotting shows a protein as a band on a membrane.

The nature of data set [2]: Plasma protein binding, human. It is filed as in vitro ADME. The following applies: equilibrium dialysis, 37 °C. On the procedure:
Assessment of plasma protein binding was measured by equilibrium dialysis by incubating plasma
based determination of final compound concentrations. […]

Sequence of FGR (P09769 whole entry): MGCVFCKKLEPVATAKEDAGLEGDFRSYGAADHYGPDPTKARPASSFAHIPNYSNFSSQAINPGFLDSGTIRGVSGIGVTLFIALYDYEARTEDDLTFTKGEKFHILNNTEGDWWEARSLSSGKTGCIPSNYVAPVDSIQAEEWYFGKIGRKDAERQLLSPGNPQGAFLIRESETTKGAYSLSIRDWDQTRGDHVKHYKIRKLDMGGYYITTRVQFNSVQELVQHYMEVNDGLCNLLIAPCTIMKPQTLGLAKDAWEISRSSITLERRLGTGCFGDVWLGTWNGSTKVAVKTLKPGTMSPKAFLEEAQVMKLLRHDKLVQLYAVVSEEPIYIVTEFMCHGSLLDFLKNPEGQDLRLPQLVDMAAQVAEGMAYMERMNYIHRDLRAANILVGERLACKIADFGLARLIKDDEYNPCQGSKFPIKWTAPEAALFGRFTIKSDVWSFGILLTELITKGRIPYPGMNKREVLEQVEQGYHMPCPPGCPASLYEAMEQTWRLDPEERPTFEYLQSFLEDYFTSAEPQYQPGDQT
Sequence of BMX (P51813 whole entry): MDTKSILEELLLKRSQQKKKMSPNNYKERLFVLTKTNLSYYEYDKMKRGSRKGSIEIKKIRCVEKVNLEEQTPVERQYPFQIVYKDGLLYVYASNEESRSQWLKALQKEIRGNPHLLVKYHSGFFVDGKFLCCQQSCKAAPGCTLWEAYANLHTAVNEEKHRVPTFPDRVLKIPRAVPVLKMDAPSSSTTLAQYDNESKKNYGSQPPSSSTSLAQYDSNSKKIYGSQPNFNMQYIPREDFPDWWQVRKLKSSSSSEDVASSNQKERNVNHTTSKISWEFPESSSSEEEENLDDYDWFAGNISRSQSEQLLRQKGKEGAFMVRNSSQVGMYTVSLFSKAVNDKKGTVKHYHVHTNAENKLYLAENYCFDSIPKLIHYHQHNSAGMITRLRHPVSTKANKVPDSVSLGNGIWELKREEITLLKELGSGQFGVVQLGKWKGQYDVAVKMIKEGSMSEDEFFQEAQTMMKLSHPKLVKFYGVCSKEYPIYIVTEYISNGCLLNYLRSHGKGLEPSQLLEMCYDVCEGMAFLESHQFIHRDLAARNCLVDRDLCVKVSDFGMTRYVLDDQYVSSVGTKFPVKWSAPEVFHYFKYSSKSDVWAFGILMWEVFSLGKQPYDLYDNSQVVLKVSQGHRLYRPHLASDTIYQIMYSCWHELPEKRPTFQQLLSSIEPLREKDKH
Sequence of EPHB2 (P29323 19-1055): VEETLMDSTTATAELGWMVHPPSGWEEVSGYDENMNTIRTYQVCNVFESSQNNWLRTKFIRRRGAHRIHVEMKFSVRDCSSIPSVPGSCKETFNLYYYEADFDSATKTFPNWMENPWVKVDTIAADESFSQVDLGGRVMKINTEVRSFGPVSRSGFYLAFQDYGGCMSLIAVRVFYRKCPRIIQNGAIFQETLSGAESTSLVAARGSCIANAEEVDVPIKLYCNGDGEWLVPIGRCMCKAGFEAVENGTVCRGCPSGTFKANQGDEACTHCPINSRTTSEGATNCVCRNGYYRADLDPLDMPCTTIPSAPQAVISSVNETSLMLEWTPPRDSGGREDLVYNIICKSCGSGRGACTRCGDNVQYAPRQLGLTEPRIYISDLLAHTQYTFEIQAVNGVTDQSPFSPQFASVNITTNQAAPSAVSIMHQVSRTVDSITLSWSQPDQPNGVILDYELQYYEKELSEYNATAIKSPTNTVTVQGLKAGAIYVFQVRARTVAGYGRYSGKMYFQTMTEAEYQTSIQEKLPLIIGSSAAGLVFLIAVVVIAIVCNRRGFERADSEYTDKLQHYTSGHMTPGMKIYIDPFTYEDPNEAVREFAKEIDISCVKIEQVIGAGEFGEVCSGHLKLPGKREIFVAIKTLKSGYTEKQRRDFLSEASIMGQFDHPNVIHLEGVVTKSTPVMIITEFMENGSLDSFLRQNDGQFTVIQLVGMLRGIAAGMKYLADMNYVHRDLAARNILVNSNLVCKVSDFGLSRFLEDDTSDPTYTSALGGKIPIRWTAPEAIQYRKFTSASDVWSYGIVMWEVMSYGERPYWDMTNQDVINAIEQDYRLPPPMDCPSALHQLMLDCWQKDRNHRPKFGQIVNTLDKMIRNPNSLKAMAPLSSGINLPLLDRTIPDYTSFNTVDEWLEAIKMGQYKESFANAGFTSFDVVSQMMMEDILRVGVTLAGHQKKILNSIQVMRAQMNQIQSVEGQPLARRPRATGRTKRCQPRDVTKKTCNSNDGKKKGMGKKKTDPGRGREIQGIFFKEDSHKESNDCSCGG
Sequence of ErbB4 (Q15303 26-1308): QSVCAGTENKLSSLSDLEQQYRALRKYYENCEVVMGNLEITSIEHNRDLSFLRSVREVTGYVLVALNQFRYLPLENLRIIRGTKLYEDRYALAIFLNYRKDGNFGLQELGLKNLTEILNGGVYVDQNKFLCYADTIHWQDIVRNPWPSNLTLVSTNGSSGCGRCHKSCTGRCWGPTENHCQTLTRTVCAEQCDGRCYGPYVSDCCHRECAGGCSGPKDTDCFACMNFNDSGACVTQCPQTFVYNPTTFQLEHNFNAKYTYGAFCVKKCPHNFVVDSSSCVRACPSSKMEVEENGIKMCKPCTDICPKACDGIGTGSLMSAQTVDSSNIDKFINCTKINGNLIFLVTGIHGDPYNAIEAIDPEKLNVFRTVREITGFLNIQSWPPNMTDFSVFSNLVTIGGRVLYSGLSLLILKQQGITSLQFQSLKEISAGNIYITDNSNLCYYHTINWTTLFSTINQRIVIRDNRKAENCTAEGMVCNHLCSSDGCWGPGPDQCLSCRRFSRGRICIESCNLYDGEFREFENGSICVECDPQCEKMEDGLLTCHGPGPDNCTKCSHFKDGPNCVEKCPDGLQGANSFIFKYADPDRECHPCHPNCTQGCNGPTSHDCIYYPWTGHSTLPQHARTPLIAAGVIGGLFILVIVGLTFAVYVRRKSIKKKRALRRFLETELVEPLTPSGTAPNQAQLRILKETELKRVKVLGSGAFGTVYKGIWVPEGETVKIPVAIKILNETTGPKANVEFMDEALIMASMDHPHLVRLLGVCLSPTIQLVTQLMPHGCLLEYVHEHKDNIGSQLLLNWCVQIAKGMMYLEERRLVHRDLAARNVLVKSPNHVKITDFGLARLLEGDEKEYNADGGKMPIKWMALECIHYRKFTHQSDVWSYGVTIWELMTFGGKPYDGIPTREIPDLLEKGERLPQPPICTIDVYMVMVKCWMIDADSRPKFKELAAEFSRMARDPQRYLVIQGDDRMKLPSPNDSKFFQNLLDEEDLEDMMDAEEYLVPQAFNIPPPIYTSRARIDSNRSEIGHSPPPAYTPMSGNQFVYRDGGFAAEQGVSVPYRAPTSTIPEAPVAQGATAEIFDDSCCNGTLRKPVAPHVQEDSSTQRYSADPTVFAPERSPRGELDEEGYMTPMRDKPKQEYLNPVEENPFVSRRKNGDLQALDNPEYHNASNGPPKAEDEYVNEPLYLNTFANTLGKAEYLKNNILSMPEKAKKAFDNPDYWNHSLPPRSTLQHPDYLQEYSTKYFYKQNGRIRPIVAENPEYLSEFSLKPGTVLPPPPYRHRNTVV

Broadly, the inhibition is the drop in the measured response relative to a control, in per cent. As for `C=CC(=O)Nc1cccc(-c2c(-c3ccc(CN4CCN(C)CC4)cc3)[nH]c3ncnc(OC)c23)c1` [Compound 17a], the inhibition at 1 µM was 92 ± 1% against FGR, 100 ± 1% against ErbB4, 72 ± 3% against EPHB2 and 89 ± 1% against BMX. In addition, in data set [1], the “concentration at which phosphorylation of EGFR and downstream proteins was reduced” value was “about 1 μM”.
One may read the fraction unbound as the share of the substance not bound to proteins or other matrix. A lower fraction unbound goes with little free substance. In data set [2], `C=CC(=O)Nc1cccc(-c2c(-c3ccc(N4CCN(C)CC4)cc3)[nH]c3ncnc(OCC(C)C)c23)c1` [Compound 19h] registered a free fraction (fraction unbound) at 6 h, 5 µM of 0.001.
